The nature of data set [1]: Skin sensitization by human patch test. The format is in vivo. The conditions noted are these: interpretation of skin average reactivity. As for the experimental part: The effect of chalcone on skin sensitization was studied by general method of skin patch test. The skin patch test was done against human subjects of ten adults. Test patch (2 cm×2 cm) included 0.2 ml of cream containing 0.01%-1.0% chalcone. The patches were applied to the backs of subjects. The patch was removed after 48 hours or 96 hours, and the skin responses of subjects were recorded and evaluated as shown in Table 4. The skin average reactivity calculated by equation 1 was interpreted as the degree of skin sensitivity in Table 5. According to the skin patch test, chalcone was nonreactive to skin sensitization (Table 6).

Data set [2] has as its system experimentally induced comedones. Description: Comedolysis by EIC (experimentally induced comedones) formation. The format is in vivo, New Zealand white rabbits. The conditions noted are these: topical once a day, 3 weeks. The source says:
Effects of chalcone on comedolysis were studied using subjects of ten mature New Zealand white rabbits, which were bred to approximately 2 kg of body weight for several weeks. In order to generate EIC, 50% oleic acid in polyethylene glycol was applied to both ears of rabbits for 2 weeks. The experimental agent was applied to the ventral surface near the auditory canal once a day with the tip of a cotton stick. 18 ears of rabbits were divided into three groups, and only one of ethanol-propylene glycol (1:1) (control), 1% chalcone in ethanol-propylene glycol (1:1), or 5% chalcone in ethanol-propylene glycol (1:1) was applied on each groups for 3 weeks. The remaining 2 ears were left untreated. Biopsy specimens were taken at 3 week by punch and specimens were fixed in 10% formalin solution and embedded in paraffin for light microscopic examination. Sections of 5 μm thickness were cut and hematoxylin and eosin stain were performed. Under light microscope, fairly large comedones were formed showing hyperplasia and hyperkeratosis of epithelium in specimen treated with vehicle only. The formation of comedones decreased in specimen treated with 1% or 5% of chalcone.

Data set [3] deals with human umbilical vein endothelial cells (HUVECs). Description: Tube formation of HUVEC on Matrigel. The format is cell-based. The conditions noted are these: 50 μM, 8-16 hrs. The source says:
The effect of chalcone or its derivatives on human endothelial cells was investigated to evaluate the biological effect of chalcones as MMP inhibitors. Since MMPs are responsible for the degradation of extracellular matrix, chalcone or its derivatives can inhibit the formation of tubular network of vessel, which represent migration and differentiation of endothelial cell. Blood vessel endothelial cells, human umbilical vein endothelial cells (HUVECs), were isolated from freshly obtained cords after cesarean section according to Grants' method (Grants D. S., et al., Cell, 58, pp933-943, 1989). They were identified by immunocytochemical staining with anti-Factor VIII antibody. HUVECs cultured on Matrigel (BD Bioscience, Bedford, Mass., USA) were treated with 50 μM of chalcone or its derivatives, and further incubated at 37° C. for 8-16 hrs. As a control, the procedure was repeated with the solvent of the above compounds.

The next data set deals with T1, MMP-9 (Homo sapiens, UniProt P14780).
T1 construct: made in house; host or cells: Sf21 insect cells, baculovirus (pBlueBac4.5)
T1 sequence (P14780 107-707 limits assumed): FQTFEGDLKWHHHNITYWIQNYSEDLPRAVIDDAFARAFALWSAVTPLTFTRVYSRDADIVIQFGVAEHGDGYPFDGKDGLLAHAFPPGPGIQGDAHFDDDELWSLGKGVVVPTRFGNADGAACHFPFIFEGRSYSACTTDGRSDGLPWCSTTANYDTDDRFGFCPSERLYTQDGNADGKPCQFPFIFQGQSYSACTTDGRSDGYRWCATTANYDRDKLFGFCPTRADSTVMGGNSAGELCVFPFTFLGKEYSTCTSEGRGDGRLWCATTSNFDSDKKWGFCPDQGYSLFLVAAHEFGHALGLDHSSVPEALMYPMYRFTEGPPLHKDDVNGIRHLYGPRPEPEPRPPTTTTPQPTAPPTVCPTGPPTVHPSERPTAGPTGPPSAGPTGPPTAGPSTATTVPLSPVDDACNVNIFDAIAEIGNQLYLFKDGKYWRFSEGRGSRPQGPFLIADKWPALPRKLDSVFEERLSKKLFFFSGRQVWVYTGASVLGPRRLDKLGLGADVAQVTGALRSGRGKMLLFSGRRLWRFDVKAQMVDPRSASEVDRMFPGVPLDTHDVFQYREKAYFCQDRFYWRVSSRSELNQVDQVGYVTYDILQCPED
Description: MMP-9 spectrofluorometric enzyme activity assay. The format is biochemical. The note with it: 50 μM compound; read-out: MMP-9 activity inhibited. The method, then:
(§1) MMP-1, MMP-2, MMP-9 and MMP-13 were cloned and prepared from insect cells (Sf21 insect cell) by using a Baculovirus system.
(§2) Each cDNA for corresponding MMPs was cloned to a pBlueBac4.5 transfer vector (Invitrogen, Cat no. V1995-20), and then transfected to Sf21 cells with a Bac-N-Blue Transfection Kit (Invitrogen, Cat no. K855-01). Sf21 cells were incubated with a TNM-FH (Sigma, St. Louis, Mo., U.S.A) media containing 10% fetal bovine serum at 27° C., then harvested and re-suspended at a concentration of 10^7 cell/Ml. The cell suspension was incubated with a virus containing the cloned gene for 1 hr at room temperature. Infected Sf21 cells were grown for 72 hrs and the medium was recovered, and the MMP was purified. MMP-2 (GENEBANK No. XM—048244) and MMP-9 (GENEBANK No. XM—009491) were recovered from a gelatin-sepharose affinity column (Sigma, G5384) by eluting with 5% DMSO-containing buffer. […]
(§3) As a control, 2 Ml of reaction buffer (50 mM Tricine, pH 7.5, 10 mM CaCl2, 200 mM NaCl) comprising DMSO, 10 nM of enzyme and 10 μM of substrate was prepared in a cuvette. Fluorescence intensity was measured for 5-10 min at room temperature with a spectrofluorometer.
(§4) 50 μM Chalcone or its derivatives were added to a reaction buffer containing a substrate and enzyme, and fluorescence intensity was measured in the same manner.

For the next data set, the target named is T2, MMP-1 (Homo sapiens, UniProt P03956).
T2 construct: made in house; host or cells: Sf21 insect cells, baculovirus (pBlueBac4.5)
T2 sequence (P03956 100-469): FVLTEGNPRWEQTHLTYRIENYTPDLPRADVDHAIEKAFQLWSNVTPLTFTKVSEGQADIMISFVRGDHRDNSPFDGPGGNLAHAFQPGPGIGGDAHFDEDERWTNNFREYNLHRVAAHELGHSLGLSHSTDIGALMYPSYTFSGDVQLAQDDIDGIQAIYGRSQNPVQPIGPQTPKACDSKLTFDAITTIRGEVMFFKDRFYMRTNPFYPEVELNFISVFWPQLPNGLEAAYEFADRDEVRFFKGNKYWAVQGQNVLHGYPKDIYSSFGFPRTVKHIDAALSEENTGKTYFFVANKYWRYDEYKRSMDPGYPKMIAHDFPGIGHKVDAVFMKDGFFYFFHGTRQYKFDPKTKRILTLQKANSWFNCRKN
Description: MMP-1 spectrofluorometric enzyme activity assay. Type of data set: biochemical. The conditions noted are these: 50 μM compound; read-out: MMP-1 activity inhibited. As for the experimental part:
as §1, §2, §3, §4

Molecules are shown by their SMILES.

Regarding `O=C(/C=C/c1ccccc1)c1ccccc1` [Chalcone], the “Result of skin patch test (degree of skin sensitivity)” value in data set [1] is “nonreactive (0.0-0.9)”. Besides, the Formation of comedones entry in data set [2] (1% chalcone in ethanol-propylene glycol (1:1)) and in data set [2] (5% chalcone in ethanol-propylene glycol (1:1)) was “decreased” throughout. In addition, the “Tubular (microvascular) network formation of HUVEC” value in data set [3] is “microvascular network was disconnected”. Besides, the results for the inhibition at 50 µM at MMP-9 and at MMP-1 were approximately 76% and approximately 75%, respectively.

These data come from patent publication US7572831B2, “Composition containing chalcone” (Angiolab, Inc., priority 2002, dated 2009).
